This is an account of results in article PMC3748103, “Characterization of FKGK18 as Inhibitor of Group VIA Ca^2+-Independent Phospholipase A2 (iPLA2β): Candidate Drug for Preventing Beta-Cell Apoptosis and Diabetes” (PLoS ONE, 2013).

The experiment has as its target T1, iPLA2β (Group VIA Ca^2+-independent phospholipase A2) (Rattus norvegicus, UniProt P97570).
T1 construct: gene Pla2g6; iPLA2β overexpressed in INS-1 insulinoma cells (OE), cytosol
T1 sequence (P97570 1-807): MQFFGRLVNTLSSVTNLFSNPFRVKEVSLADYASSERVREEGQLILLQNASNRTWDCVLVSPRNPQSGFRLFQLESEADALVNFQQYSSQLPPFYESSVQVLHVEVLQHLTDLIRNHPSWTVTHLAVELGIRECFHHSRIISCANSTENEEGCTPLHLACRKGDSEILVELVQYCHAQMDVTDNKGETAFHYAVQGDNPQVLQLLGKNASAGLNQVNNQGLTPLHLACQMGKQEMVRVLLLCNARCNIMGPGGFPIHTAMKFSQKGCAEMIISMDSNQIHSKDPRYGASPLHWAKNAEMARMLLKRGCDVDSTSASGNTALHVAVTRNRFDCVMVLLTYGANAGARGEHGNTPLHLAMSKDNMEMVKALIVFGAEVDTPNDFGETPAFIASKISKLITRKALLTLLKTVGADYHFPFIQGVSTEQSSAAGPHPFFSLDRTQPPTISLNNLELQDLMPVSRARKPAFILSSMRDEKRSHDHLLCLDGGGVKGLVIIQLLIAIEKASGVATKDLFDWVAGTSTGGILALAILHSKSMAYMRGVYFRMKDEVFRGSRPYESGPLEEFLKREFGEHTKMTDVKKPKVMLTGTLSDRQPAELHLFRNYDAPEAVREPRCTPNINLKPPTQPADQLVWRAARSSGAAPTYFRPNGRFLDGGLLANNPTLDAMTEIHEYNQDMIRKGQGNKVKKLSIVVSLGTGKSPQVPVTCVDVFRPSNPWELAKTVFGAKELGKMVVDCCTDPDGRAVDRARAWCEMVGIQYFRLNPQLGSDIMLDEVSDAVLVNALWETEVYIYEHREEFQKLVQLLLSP
Briefly: radioactive PLA2 activity assay ([…]-PAPC) in cytosol of iPLA2β-overexpressing INS-1 cells. It is filed as biochemical.

For `O=C(CCCCc1ccc2ccccc2c1)C(F)(F)F` [FKGK18, 1,1,1-trifluoro-6-(naphthalen-2-yl)hexan-2-one], the IC50 was around 50 nM. The same measure for `O=C1O/C(=C/Br)CC[C@@H]1c1cccc2ccccc12` [R-BEL, (E)-6-(bromo-methylene) tetrahydro-3-(1-naphthalenyl)-2H-pyran-2-one]: around 3000 nM.
